How the values were obtained:
[1] = test system: UACC-62; assay: NCI-60 antiproliferative screen (SRB); type: cell-based, human; conditions: 48 h; for inhibition at 10 µM: 10 µM single dose, UACC-62 (Melanoma), read-out: Growth inhibition (%)
[2] = test system: UACC-257; assay: NCI-60 antiproliferative screen (SRB); type: cell-based, human; conditions: 48 h; for inhibition at 10 µM: 10 µM single dose, UACC-257 (Melanoma), read-out: Growth inhibition (%)
[3] = molecular target: T1, VEGFR-2 (Homo sapiens, UniProt P35968); assay: VEGFR-2/KDR ELISA kit kinase assay; type: biochemical
T1 construct: purchased
Procedure: (§1) The inhibition percentages of the target compound 5l at a concentration of 10 µM were assessed using DMSO as a solvent against ten kinases, namely PTK2B, JAK1, CDK2, FGFR1, IGF1R, VEGFR-2, PDGFRα, PDGFRβ, FLT3, and Src. The Z’-LYTE® technology, which relies on FRET (Fluorescence Resonance Energy Transfer) from Invitrogen/Life Technologies, was employed for this evaluation for all kinases except VEGFR-2. The VEGFR-2 kinase assay was conducted in a 96-well streptavidin-coated plate using a recombinant human VEGFR-2/KDR ELISA kit, following the manufacturer’s instructions. […] Statistical significance was assessed using one-way analysis of variance (ANOVA), followed by the Dunnett test; data are represented as means ± SD.

[4] = molecular target: T2, PDGFRβ (Homo sapiens, UniProt P09619); assay: Z'-LYTE kinase assay; type: biochemical
T2 construct: purchased Invitrogen/Life Technologies
T2 sequence (P09619 33-1106): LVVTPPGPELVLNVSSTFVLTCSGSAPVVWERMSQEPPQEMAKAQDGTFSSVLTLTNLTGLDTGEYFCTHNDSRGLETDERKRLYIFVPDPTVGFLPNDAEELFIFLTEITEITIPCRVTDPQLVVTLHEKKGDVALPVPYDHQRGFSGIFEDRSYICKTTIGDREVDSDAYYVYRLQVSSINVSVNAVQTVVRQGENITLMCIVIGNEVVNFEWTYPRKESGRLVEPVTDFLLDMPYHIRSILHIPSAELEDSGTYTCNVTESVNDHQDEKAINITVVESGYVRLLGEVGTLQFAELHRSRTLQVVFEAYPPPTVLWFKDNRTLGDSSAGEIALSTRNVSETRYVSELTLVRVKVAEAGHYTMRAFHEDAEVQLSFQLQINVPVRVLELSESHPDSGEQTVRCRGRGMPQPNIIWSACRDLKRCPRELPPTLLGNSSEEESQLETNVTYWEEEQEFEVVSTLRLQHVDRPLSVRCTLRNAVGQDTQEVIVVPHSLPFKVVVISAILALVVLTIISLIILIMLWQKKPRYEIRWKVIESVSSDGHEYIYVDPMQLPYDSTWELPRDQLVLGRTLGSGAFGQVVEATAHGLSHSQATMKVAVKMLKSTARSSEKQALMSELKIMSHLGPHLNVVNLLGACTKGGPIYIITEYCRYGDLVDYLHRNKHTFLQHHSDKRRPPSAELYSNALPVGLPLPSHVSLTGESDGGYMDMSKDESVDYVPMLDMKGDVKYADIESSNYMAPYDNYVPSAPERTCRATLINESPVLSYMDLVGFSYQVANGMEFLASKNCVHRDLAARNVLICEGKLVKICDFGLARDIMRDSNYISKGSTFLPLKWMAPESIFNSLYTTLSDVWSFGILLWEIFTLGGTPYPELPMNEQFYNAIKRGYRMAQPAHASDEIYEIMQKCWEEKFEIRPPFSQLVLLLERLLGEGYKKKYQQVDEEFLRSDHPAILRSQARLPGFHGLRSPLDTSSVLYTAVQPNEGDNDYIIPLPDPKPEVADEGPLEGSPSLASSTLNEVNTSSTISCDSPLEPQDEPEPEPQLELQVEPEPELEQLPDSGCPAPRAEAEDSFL
Procedure: as §1

[5] = molecular target: T3, FGFR1 (Homo sapiens, UniProt P11362); assay: Z'-LYTE kinase assay; type: biochemical
T3 construct: purchased Invitrogen/Life Technologies
T3 sequence (P11362 22-822): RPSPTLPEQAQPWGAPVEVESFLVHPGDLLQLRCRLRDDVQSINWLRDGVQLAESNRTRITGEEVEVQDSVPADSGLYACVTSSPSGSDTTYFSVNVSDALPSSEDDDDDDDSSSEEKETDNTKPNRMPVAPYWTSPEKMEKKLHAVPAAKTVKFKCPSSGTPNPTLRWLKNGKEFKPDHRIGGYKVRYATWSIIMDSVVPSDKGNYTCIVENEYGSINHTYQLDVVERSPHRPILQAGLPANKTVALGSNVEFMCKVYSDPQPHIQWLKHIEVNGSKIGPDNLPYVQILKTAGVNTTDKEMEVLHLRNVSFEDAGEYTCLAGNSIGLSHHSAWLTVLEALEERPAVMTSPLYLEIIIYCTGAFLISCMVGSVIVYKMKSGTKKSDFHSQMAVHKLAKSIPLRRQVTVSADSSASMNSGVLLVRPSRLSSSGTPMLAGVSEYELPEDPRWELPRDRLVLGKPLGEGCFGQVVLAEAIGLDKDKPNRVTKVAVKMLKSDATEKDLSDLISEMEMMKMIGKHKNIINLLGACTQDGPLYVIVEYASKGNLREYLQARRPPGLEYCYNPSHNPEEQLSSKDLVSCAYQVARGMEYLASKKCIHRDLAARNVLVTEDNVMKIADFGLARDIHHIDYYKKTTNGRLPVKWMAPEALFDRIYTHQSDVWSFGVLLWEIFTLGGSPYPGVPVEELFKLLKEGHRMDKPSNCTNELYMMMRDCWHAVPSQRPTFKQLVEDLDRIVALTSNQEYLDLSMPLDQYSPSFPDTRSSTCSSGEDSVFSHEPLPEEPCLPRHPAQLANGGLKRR
Procedure: as §1

[6] = molecular target: T4, PDGFRα (Homo sapiens, UniProt P16234); assay: Z'-LYTE kinase assay; type: biochemical
T4 construct: purchased Invitrogen/Life Technologies
T4 sequence (P16234 24-1089): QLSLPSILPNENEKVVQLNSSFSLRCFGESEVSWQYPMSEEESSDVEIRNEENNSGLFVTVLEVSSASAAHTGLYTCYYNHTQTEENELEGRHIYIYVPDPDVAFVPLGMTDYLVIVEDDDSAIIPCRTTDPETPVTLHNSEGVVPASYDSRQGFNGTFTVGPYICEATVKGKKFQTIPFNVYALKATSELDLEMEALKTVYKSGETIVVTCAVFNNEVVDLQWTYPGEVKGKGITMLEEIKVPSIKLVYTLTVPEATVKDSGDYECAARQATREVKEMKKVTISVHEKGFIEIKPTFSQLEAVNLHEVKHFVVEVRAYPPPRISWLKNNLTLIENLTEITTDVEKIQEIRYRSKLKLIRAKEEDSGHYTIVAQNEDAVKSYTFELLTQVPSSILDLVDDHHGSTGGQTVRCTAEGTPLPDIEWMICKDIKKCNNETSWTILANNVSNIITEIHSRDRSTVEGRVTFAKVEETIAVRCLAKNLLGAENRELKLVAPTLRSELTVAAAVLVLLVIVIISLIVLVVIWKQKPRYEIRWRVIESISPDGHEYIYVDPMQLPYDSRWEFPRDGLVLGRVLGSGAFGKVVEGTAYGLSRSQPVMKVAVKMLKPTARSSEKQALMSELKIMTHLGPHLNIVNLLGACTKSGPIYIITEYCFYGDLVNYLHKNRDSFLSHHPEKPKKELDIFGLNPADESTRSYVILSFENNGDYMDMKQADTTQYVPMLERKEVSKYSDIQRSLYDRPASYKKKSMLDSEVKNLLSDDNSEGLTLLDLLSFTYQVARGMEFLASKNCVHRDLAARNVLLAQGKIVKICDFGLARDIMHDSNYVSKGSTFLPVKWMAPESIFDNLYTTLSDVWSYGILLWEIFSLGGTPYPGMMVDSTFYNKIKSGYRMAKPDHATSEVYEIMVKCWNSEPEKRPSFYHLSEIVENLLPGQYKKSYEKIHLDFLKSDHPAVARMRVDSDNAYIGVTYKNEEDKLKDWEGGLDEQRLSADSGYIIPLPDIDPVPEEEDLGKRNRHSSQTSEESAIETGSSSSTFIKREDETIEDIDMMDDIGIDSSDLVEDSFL
Procedure: as §1

[7] = molecular target: T5, IGF1R (Homo sapiens, UniProt P08069); assay: Z'-LYTE kinase assay; type: biochemical
T5 construct: purchased Invitrogen/Life Technologies
T5 sequence (P08069 31-1367): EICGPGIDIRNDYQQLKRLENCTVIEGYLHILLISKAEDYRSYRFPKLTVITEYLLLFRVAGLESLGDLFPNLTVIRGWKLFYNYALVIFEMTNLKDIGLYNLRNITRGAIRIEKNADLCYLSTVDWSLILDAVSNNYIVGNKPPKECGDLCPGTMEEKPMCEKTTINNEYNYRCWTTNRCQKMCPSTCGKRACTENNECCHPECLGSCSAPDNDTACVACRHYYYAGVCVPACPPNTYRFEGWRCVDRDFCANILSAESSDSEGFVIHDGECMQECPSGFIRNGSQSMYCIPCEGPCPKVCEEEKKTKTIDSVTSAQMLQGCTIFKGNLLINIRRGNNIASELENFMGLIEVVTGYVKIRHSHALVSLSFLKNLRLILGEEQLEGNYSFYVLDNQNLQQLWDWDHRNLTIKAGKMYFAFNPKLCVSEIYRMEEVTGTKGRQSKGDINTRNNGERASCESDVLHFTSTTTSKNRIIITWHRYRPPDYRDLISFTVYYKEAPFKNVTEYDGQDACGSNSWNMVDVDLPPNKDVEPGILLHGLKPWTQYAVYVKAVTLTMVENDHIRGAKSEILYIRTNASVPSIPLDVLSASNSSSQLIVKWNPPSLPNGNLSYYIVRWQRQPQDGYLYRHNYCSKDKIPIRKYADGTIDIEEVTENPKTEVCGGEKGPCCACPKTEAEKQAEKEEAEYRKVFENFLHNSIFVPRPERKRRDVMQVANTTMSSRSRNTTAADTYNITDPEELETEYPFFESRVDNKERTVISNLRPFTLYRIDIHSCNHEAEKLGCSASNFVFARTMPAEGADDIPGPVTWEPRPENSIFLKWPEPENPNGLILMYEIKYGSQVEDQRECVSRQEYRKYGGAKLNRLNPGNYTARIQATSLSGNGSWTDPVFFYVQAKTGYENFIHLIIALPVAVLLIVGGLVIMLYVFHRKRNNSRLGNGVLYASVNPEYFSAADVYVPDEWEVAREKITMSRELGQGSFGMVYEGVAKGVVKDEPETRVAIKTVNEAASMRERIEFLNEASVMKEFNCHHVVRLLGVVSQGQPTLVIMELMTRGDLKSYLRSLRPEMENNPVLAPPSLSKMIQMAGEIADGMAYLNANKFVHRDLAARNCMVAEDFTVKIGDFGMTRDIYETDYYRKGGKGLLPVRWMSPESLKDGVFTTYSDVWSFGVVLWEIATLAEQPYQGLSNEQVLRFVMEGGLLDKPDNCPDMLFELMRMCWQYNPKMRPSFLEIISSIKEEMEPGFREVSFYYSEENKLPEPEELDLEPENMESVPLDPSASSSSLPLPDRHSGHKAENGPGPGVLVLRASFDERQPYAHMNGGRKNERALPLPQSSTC
Procedure: as §1

[8] = molecular target: T6, SRC (Homo sapiens, UniProt P12931); assay: Z'-LYTE kinase assay; type: biochemical
T6 construct: purchased Invitrogen/Life Technologies
T6 sequence (P12931 whole entry): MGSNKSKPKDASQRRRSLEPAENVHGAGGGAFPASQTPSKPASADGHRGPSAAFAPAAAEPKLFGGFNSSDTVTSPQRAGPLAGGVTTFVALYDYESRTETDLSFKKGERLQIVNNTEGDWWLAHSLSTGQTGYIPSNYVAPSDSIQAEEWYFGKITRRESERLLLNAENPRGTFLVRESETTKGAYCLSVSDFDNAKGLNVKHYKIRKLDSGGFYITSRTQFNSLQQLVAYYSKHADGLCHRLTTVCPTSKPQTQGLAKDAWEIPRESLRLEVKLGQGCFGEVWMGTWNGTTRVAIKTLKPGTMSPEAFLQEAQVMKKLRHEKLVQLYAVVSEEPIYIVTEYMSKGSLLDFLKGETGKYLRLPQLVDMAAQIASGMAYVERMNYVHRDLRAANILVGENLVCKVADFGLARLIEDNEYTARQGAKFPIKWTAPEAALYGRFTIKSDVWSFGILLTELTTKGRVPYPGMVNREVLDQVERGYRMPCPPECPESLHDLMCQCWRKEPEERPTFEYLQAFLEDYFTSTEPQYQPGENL
Procedure: as §1

[9] = molecular target: T7, PTK2B (Homo sapiens, UniProt Q14289); assay: Z'-LYTE kinase assay; type: biochemical
T7 construct: purchased Invitrogen/Life Technologies
Procedure: as §1

[10] = molecular target: T8, JAK1 (Homo sapiens, UniProt P23458); assay: Z'-LYTE kinase assay; type: biochemical
T8 construct: purchased Invitrogen/Life Technologies
Procedure: as §1

[11] = test system: Leukemia subpanel; assay: NCI-60 screen, subpanel summary; type: cell-based, human
From the text: (§2) (Table 5). Moreover, the ratio of the MG-MID of the full-panel to its individual sub-panels offers the selectivity index.

[12] = test system: Breast cancer subpanel; assay: NCI-60 screen, subpanel summary; type: cell-based, human
From the text: as §2

[13] = test system: Ovarian cancer subpanel; assay: NCI-60 screen, subpanel summary; type: cell-based, human
From the text: as §2

[14] = test system: Colon cancer subpanel; assay: NCI-60 screen, subpanel summary; type: cell-based, human
From the text: as §2

[15] = test system: NSCL cancer subpanel; assay: NCI-60 screen, subpanel summary; type: cell-based, human
From the text: as §2

[16] = test system: CNS cancer subpanel; assay: NCI-60 screen, subpanel summary; type: cell-based, human
From the text: as §2

[17] = test system: Prostate cancer subpanel; assay: NCI-60 screen, subpanel summary; type: cell-based, human
From the text: as §2

[18] = test system: Melanoma subpanel; assay: NCI-60 screen, subpanel summary; type: cell-based, human
From the text: as §2

[19] = test system: Renal cancer subpanel; assay: NCI-60 screen, subpanel summary; type: cell-based, human
From the text: as §2

`O=C1Nc2cc(Cl)ccc2C1=Cc1ccc(OCc2ccncc2)cc1` (mixture of isomers) [Compound 5p, (E/Z)-6-Chloro-3-[4-(pyridin-4-ylmethoxy)benzylidene]indolin-2-one] gave an inhibition at 10 µM ([1]; Homo sapiens) of 34.7% and an inhibition at 10 µM ([2]; Homo sapiens) of 17.2%.

`O=C1Nc2ccc(Cl)cc2C1=Cc1ccc(OCc2ccccn2)cc1` (mixture of isomers) [Compound 5g, (E/Z)-5-Chloro-3-[4-(pyridin-2-ylmethoxy)benzylidene] indolin-2-one] showed an inhibition at 10 µM ([1]; Homo sapiens) of 33.3% and an inhibition at 10 µM ([2]; Homo sapiens) of -18.2%.

In the case of `O=C1Nc2cc(Cl)ccc2C1=Cc1ccc(OCc2cccnc2)cc1` (mixture of isomers) [Compound 5l, (E/Z)-6-Chloro-3-[4-(pyridin-3-ylmethoxy)benzylidene] indolin-2-one], the inhibition at 10 µM ([1]; Homo sapiens) is reported as 64.3%, the GI50 ([1]; Homo sapiens, five-dose, UACC-62) is reported as 7.7 µM and the TGI ([1]; five-dose, UACC-62) is reported as 43.50 µM. It also gave an inhibition at 10 µM [3] of 38.5%, an inhibition at 10 µM ([2]; Homo sapiens) of 76.7% and a GI50 ([2]; Homo sapiens, five-dose, UACC-257) of 8.06 µM. For the same compound, the CC50 ([2]; Homo sapiens, five-dose, UACC-257, read-out: LC50 (the source's name)) was > 100 µM, the TGI ([2]; five-dose, UACC-257) was 43.80 µM and the inhibition at 10 µM [4] was 26.6%. The inhibition at 10 µM [5] was 24.1%, the inhibition at 10 µM [6] was 43.5% and the inhibition at 10 µM [7] was 2.88%. It also gave an inhibition at 10 µM [8] of 10.9%, an inhibition at 10 µM [9] of 9.96% and an inhibition at 10 µM [10] of 4.17%. For the same compound, the inhibition at 10 µM ([11]; Homo sapiens, 10 µM, leukemia, read-out: overall inhibition in panel (radar chart)) was > 90%, the GI50 ([11]; Homo sapiens, five-dose, Leukemia subpanel, read-out: MG-MID (GI50)) was 3.39 µM and the “Selectivity Index” value ([11]; ratio of full-panel MG-MID to Leukemia subpanel MG-MID) was 3.61. The GI50 ([12]; Homo sapiens, five-dose, Breast cancer subpanel, read-out: MG-MID (GI50)) was 8.14 µM, the “Selectivity Index” value ([12]; ratio of full-panel MG-MID to Breast cancer subpanel MG-MID) was 1.50 and the GI50 ([13]; Homo sapiens, five-dose, Ovarian cancer subpanel, read-out: MG-MID (GI50)) was 29.4 µM. For the same compound, the “Selectivity Index” value ([13]; ratio of full-panel MG-MID to Ovarian cancer subpanel MG-MID) was 0.42, the inhibition at 10 µM ([14]; Homo sapiens, 10 µM, colon cancer, read-out: overall inhibition in panel (radar chart)) was > 90% and the GI50 ([14]; Homo sapiens, five-dose, Colon cancer subpanel, read-out: MG-MID (GI50)) was 5.97 µM. The “Selectivity Index” value ([14]; ratio of full-panel MG-MID to Colon cancer subpanel MG-MID) was 2.05, the GI50 ([15]; Homo sapiens, five-dose, NSCL cancer subpanel, read-out: MG-MID (GI50)) was 11.7 µM and the “Selectivity Index” value ([15]; ratio of full-panel MG-MID to NSCL cancer subpanel MG-MID) was 1.05. The GI50 ([16]; Homo sapiens, five-dose, CNS cancer subpanel, read-out: MG-MID (GI50)) was 11 µM, the “Selectivity Index” value ([16]; ratio of full-panel MG-MID to CNS cancer subpanel MG-MID) was 1.11 and the GI50 ([17]; Homo sapiens, five-dose, Prostate cancer subpanel, read-out: MG-MID (GI50)) was 9.78 µM. For the same compound, the “Selectivity Index” value ([17]; ratio of full-panel MG-MID to Prostate cancer subpanel MG-MID) was 1.25, the inhibition at 10 µM ([18]; Homo sapiens, 10 µM, melanoma, read-out: overall inhibition in panel (radar chart)) was > 90% and the GI50 ([18]; Homo sapiens, five-dose, Melanoma subpanel, read-out: MG-MID (GI50)) was 10.9 µM. For the same compound, the “Selectivity Index” value ([18]; ratio of full-panel MG-MID to Melanoma subpanel MG-MID) was 1.12, the GI50 ([19]; Homo sapiens, five-dose, Renal cancer subpanel, read-out: MG-MID (GI50)) was 19.8 µM and the “Selectivity Index” value ([19]; ratio of full-panel MG-MID to Renal cancer subpanel MG-MID) was 0.62.

`O=C1Nc2cc(Cl)ccc2C1=Cc1ccc(OCc2ccccc2)cc1` (mixture of isomers) [Compound 5d, (E/Z)-3-[4-(Benzyloxy)benzylidene]-6-chloroindolin-2-one] showed an inhibition at 10 µM ([1]; Homo sapiens) of 4.09% and an inhibition at 10 µM ([2]; Homo sapiens) of -16.1%.

`O=C1Nc2ccc(Cl)cc2C1=Cc1ccc(OCc2cccnc2)cc1` (mixture of isomers) [Compound 5k, (E/Z)-5-Chloro-3-[4-(pyridin-3-ylmethoxy)benzylidene] indolin-2-one] showed an inhibition at 10 µM ([1]; Homo sapiens) of 23.3% and an inhibition at 10 µM ([2]; Homo sapiens) of 2.42%.

`O=C1Nc2ccc(F)cc2C1=Cc1ccc(OCc2ccncc2)cc1` (mixture of isomers) [Compound 5n, (E/Z)-5-Fluoro-3-[4-(pyridin-4-ylmethoxy)benzylidene] indolin-2-one] gave an inhibition at 10 µM ([1]; Homo sapiens) of 28.4% and an inhibition at 10 µM ([2]; Homo sapiens) of 23.4%.

Work on `O=C1Nc2ccccc2C1=Cc1ccc(OCc2ccccn2)cc1` (mixture of isomers) [Compound 5e, (E/Z)-3-[4-(Pyridin-2-ylmethoxy]benzylidene) indolin-2-one] yielded an inhibition at 10 µM ([1]; Homo sapiens) of 40.4% and an inhibition at 10 µM ([2]; Homo sapiens) of 12.6%.

Compound `O=C1Nc2ccccc2C1=Cc1ccc(OCc2ccncc2)cc1` (mixture of isomers) [Compound 5m, (E/Z)-3-[4-(Pyridin-4-ylmethoxy)benzylidene] indolin-2-one] has an inhibition at 10 µM ([1]; Homo sapiens) of 31.1% and an inhibition at 10 µM ([2]; Homo sapiens) of 35.8%.

`O=C1Nc2ccccc2C1=Cc1ccc(OCc2cccnc2)cc1` (mixture of isomers) [Compound 5i, (E/Z)-3-[4-(Pyridin-3-ylmethoxy)benzylidene]indolin-2-one] showed an inhibition at 10 µM ([1]; Homo sapiens) of 43.5% and an inhibition at 10 µM ([2]; Homo sapiens) of 30.5%.

Compound `O=C1Nc2ccccc2C1=Cc1ccc(OCc2ccccc2)cc1` (mixture of isomers) [Compound 5a, (E/Z)-3-[4-(Benzyloxy)benzylidene] indolin-2-one] has an inhibition at 10 µM ([1]; Homo sapiens) of 6.11% and an inhibition at 10 µM ([2]; Homo sapiens) of -9.45%.

Work on `O=C1Nc2ccc(F)cc2C1=Cc1ccc(OCc2ccccc2)cc1` (mixture of isomers) [Compound 5b, (E/Z)-3-[4-(Benzyloxy)benzylidene]-5-fluoroindolin-2-one] yielded an inhibition at 10 µM ([1]; Homo sapiens) of 4.38% and an inhibition at 10 µM ([2]; Homo sapiens) of 2.53%.

In the case of `O=C1Nc2ccc(F)cc2C1=Cc1ccc(OCc2cccnc2)cc1` (mixture of isomers) [Compound 5j, (E/Z)-5-Fluoro-3-[4-(pyridin-3-ylmethoxy)benzylidene]indolin-2-one], the inhibition at 10 µM ([1]; Homo sapiens) is reported as 57.8% and the inhibition at 10 µM ([2]; Homo sapiens) is reported as 39.8%.

`O=C1Nc2cc(Cl)ccc2C1=Cc1ccc(OCc2ccccn2)cc1` (mixture of isomers) [Compound 5h, (E/Z)-6-Chloro-3-[4-(pyridin-2-ylmethoxy)benzylidene]indolin-2-one] showed an inhibition at 10 µM ([1]; Homo sapiens) of 49.6% and an inhibition at 10 µM ([2]; Homo sapiens) of -2.1%.

Compound `O=C1Nc2ccc(Cl)cc2C1=Cc1ccc(OCc2ccccc2)cc1` (mixture of isomers) [Compound 5c, (E/Z)-3-[4-(Benzyloxy)benzylidene]-5-chloroindolin-2-one] has an inhibition at 10 µM ([1]; Homo sapiens) of 5.69% and an inhibition at 10 µM ([2]; Homo sapiens) of -6.58%.

`O=C1Nc2ccc(Cl)cc2C1=Cc1ccc(OCc2ccncc2)cc1` (mixture of isomers) [Compound 5o, (E/Z)-5-Chloro-3-[4-(pyridin-4-ylmethoxy)benzylidene] indolin-2-one] showed an inhibition at 10 µM ([1]; Homo sapiens) of 37.6% and an inhibition at 10 µM ([2]; Homo sapiens) of 23.7%.

Compound `O=C1Nc2ccc(F)cc2C1=Cc1ccc(OCc2ccccn2)cc1` (mixture of isomers) [Compound 5f, (E/Z)-5-fluoro-3-[4-(pyridin-2-ylmethoxy)benzylidene]indolin-2-one] has an inhibition at 10 µM ([1]; Homo sapiens) of 9.94% and an inhibition at 10 µM ([2]; Homo sapiens) of -4.06%.

Source: paper PMC11124822, “Discovery and Anticancer Screening of Novel Oxindole-Based Derivative Bearing Pyridyl Group as Potent and Selective Dual FLT3/CDK2 Kinase Inhibitor” (Pharmaceuticals, 2024)
